Assay [1] deals with T1, recombinant human deoxyuridine nucleotidohydrolase (dUTPase) (Homo sapiens, UniProt P33316).
T1 construct: made in house
T1 sequence (P33316 1-164 isoform P33316-2): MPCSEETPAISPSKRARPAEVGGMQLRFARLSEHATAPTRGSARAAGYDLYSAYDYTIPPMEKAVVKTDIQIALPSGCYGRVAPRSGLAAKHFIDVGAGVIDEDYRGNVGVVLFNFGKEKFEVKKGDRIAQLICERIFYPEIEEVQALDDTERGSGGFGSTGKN
Put plainly: fluorescence-based dUTPase inhibition assay. It is filed as biochemical. As to conditions: 5 ng recombinant dUTPase, 50 pmols dUTP, 37° C. for 8 mins. An excerpt: Recombinant human deoxyuridine nucleotidohydrolase (dUTPase) is expressed and purified as described in Ladner R D, Carr S A, Huddleston M J, McNulty D E, Caradonna S J. J Biol Chem. 1996 Mar. 29; 271(13):7752-7. All drugs stocks are aliquoted and diluted as appropriate prior to use. The oligonucleotide primer, templates and fluorophore- and quencher-labeled detection probes are synthesized by Integrated DNA Technologies (Coralville, Iowa), subjected to polyacrylamide gel electrophoresis purification and reconstituted in Omnipur sterile nuclease-free water (EMD Chemicals USA, Gibbstown N.J.) at a stock concentration of 100 μmol/L. The two non-emissive (dark) quenching molecules incorporated into the detection probes include the Iowa black […] (IBFQ; absorption max 531 nm) and ZEN (non-abbreviation; absorption max 532 nm). The fluorescent label utilized is 6-FAM (5′-carboxyfluorescein; excitation max.=494 nm, emission max.=520 nm). Probes are further diluted to a working stock of 10 μmol/L and aliquoted to avoid repeated freeze/thaw cycles. […]
Reaction mixtures contained primer, probe and template at an equimolar final concentration of 0.4 μmol/L. Magnesium chloride (MgCl2) is included at a final concentration of 2 mmol/L. Non-limiting dNTPs are included in the reaction mix in excess at a final concentration of 100 μmol/L (dUTP/dTTP is excluded). […] Thermal profiling and fluorescence detection is performed using a customized thermal program on board a Roche Lightcycler LC480 Instrument II. […] Raw fluorescence spectra for 6-FAM is measured at specified time intervals to follow assay progression on board a Roche LightCycler 480 Software Version 1.5 and exported and analyzed in Microsoft Excel (Microsoft, Redmond Wash.) and Prism (GraphPad Software, La Jolla Calif.). Fluorescence values for blank reactions (limiting dNTP omitted) are subtracted to give normalized fluorescence units (NFU) to account for background fluorescence.
Test compounds are screened in a fluorescence-based assay. […]

For another assay, the system named is SW620 cells. Put plainly: MTS growth inhibition assay. As to conditions: colorectal SW620; 5-FU between 0 and 100 μmol/L; 72 hours. Type of assay: cell-based. The procedure: (§1) The Cell Titer AQueous MTS assay (Promega) is carried out according to the manufacturers guidelines. […] The combination effect is determined by the combination index (CI) method utilizing Calcusyn software (Biosoft, Ferguson, Mo.). Fraction affected (FA) is calculated from the percent growth inhibition: FA=[…]. CI values <1, synergism; 1-1.2, additive and >1.2, antagonism.
(§2) Test compounds are evaluated for their antitumor activity in colorectal cancer cells using the MTS growth inhibition assay. HCT116 and SW620 cells are exposed to increasing concentrations of each agent for 72 hours and growth inhibition is directly compared to vehicle-treated controls. The NSCLC cell lines A549 and H1299 are exposed to increasing concentrations of each agent for 72 hours and growth inhibition is directly compared to vehicle-treated controls.
(§3) MTS growth inhibition assays are performed to evaluate the effectiveness of the test compounds alone and in combination with the fluoropyrimidine thymidylate synthase (TS) inhibitor 5-fluorouracil (5-FU) at inhibiting the growth of colorectal (HCT116 and SW620) cell line models. […] Simultaneous treatment with increasing concentrations of 5-FU and a test compound at fixed concentrations of 25 μmol/L is determined.

Assay [2] relates to HCT116 cells. In words: MTS growth inhibition assay. It is filed as cell-based. As to conditions: colorectal HCT116; 5-FU between 0 and 100 μmol/L; 72 hours. The procedure: as §1, §2, §3
The next assay relates to H1299 cells. In words: Colony forming assay. As to conditions: non-small cell lung H1299; FUdR between 0.5 and 2.5 μmol/L. Type of assay: cell-based. The procedure:
(§4) Colony forming assay showing the ability of colon (SW620, HCT116), non-small cell lung (A549, H460, H1299 and H358) and breast (MCF7) cancer cells to survive and proliferate following transient 24 hour exposure to test compounds, FUdR and combinations are determined. Specifically, cells are seeded at densities between 50 and 100 cells/well in 24-well plates. Twenty-four hours later, cells are treated with increasing concentrations of a rtest compound, a fixed dose of FUdR and combinations of these. After 24 hours, drug is removed, cells are rinsed and allowed to outgrow for 10-14 days. At the conclusion of the outgrowth, cells are fixed in 60% ice cold methanol and stained with 0.1% crystal violet, scanned and counted. Data is presented as percentage of untreated controls (mean±SD). Fraction affected and combination indexes are calculated according to the method of Chou and Talalay where <1 is indicative of a synergistic drug interaction.
(§5) Colony forming assays are performed to evaluate the effectiveness of test compounds alone and in combination with the fluoropyrimidine thymidylate synthase (TS) inhibitor fluorodeoxyuridine (FUdR) at reducing cancer cell viability in colorectal (HCT116), breast (MCF-7) and non-small cell lung (H1299, A549, H358 and H460) cell line models. […] In colorectal cancer cells, concentrations of test compounds ranging e.g., from 3.1 μmol/L to 50 μmol/L are combined with 0.5 μmol/L FUdR in HCT116 cells and 1 μmol/L FUdR in SW620 cells.

The next assay concerns H358 cells. Put plainly: Colony forming assay. Type of assay: cell-based. As to conditions: non-small cell lung H358; FUdR between 0.5 and 2.5 μmol/L. The procedure: as §4, §5
A further assay relates to H460 cells. In words: Colony forming assay. Type of assay: cell-based. Particulars: non-small cell lung H460; FUdR between 0.5 and 2.5 μmol/L. The procedure:
as §4, §5

The subject of another assay is MCF-7 cells. In words: Colony forming assay. Type of assay: cell-based. As to conditions: breast MCF-7; FUdR between 0.5 and 2.5 μmol/L. The procedure: as §4, §5
In another assay the test system is A549 cells. Put plainly: Colony forming assay. It is filed as cell-based. As to conditions: non-small cell lung A549; FUdR between 0.5 and 2.5 μmol/L. The procedure: as §4, §5
Assay [3] has as its system HCT116 cells. Put plainly: Colony forming assay. Type of assay: cell-based. Particulars: colorectal HCT116; FUdR between 0.5 and 2.5 μmol/L. The procedure:
as §4, §5

Each structure is given as a SMILES string.

Turning to `C[C@@H](NS(=O)(=O)Cc1ccc(CN2CC(=O)NC2=O)cc1)c1ccc(F)c(OCC2CC2)c1` [Example 82, (R)—N-(1-(3-(cyclopropylmethoxy)-4-fluorophenyl)ethyl)-1-(4-((2,4-dioxoimidazolidin-1-yl)methyl)phenyl)methanesulfonamide], the half-maximal inhibitory concentration (IC50) – broadly, the concentration that inhibits the measured activity by half – in assay [1] was 2.2 µM.
Turning to `O=c1[nH]cc(F)c(=O)[nH]1` [Example 5-FU, 5-fluorouracil], the growth inhibition result in the assay with SW620 cells and in the assay on HCT116 cells [2] was “dose-dependent increases in growth inhibition” each time.
On to `O=c1[nH]c(=O)n([C@H]2C[C@H](O)[C@@H](CO)O2)cc1F` [FUdR, fluorodeoxyuridine], for which the colonies formed result in the assay with H1299 cells, with H358 cells, in the assay with H460 cells, in the assay on MCF-7 cells, with A549 cells and in the assay with HCT116 cells [3] was “dose-dependent decreases in colonies formed” each time.
Regarding `C[C@@H](NS(=O)(=O)Cc1cccc(CN2CC(=O)NC2=O)c1)c1ccc(F)c(OCC2CC2)c1` [Example 81, (R)—N-(1-(3-(cyclopropylmethoxy)-4-fluorophenyl)ethyl)-1-(3-((2,4-dioxoimidazolidin-1-yl)methyl)phenyl)methanesulfonamide], the IC50 in assay [1] worked out at 80 µM.
As to `C[C@@H](NS(=O)(=O)CCc1cccc(N2CC(=O)NC2=O)c1)c1ccc(F)c(OCC2CC2)c1` [Example 79, (R)—N-(1-(3-(cyclopropylmethoxy)-4-fluorophenyl)ethyl)-2-(3-(2,4-dioxoimidazolidin-1-yl)phenyl)ethane-1-sulfonamide], the IC50 in assay [1] was around 100 µM.
